This note sets out measurements from patent publication US20070081573A1, “Process for inhibiting biofilm formation on and/or removing biofilm from an enhanced tube” (Ashland Licensing and Intellectual Property LLC, priority 2005, published 2007).

In the test the test system is pseudomonas aerigenosa (ATCC 27853) biofilm. Briefly: Biofouling test on enhanced tube and smooth tube in laboratory scale cooling tower system (modified P-U-L-S-E fouling monitor). In kind it is cell-based.

Entries after “also recorded” stand apart in the source; their conditions may differ.

Consider `BrBr` [bromine, reference compound], for which the “effect on inhibiting and/or removing biofilm” value is “little effect” and the “reduction of biofilm deposits (summary of test results)” value is listed as “not effective alone”.
For `[O][Cl+][O-]` [chlorine dioxide], in that order: “effective; also recorded: more effective than stabilized bromine” and “reduce the deposit of biofilm”.
